Laboratory results taken from US10328079B2, “[6R]-MTHF multiple bolus administration in 5-fluorouracil based chemotherapy” (Isofol Medical AB, priority 2017, dated 2019).
Values joined by “and” are separate entries in the source; they are usually repeats but may differ in a detail not shown here. Identical values can stand only once. “Also recorded” adds a separate entry of the source. Like-named read-outs stand apart in the source and are kept apart here.

Columns and labels:
Thymidylate Synthase = Thymidylate Synthase (Lacticaseibacillus casei, UniProt P00469); settings: cited from earlier work
[1] = test system: previously untreated metastatic colorectal cancer; settings: Phase II Trial; cited from earlier work
colorectal cancer = settings: cited from earlier work; for ORR: Phase IIb, first-line patients, in combination with 5-FU
pancreas cancer = settings: CoFactor combined with 5-FU; cited from earlier work
[2] = Phase IIb, first-line patients, in combination with 5-FU; cited from earlier work
colorectal tumors = settings: cited from earlier work
[3] = test system: thymidylate synthase (TS); assay: Historical group comparison study: incremental plasma dUrd (marker of TS inhibition) 24 h after 5-FU bolus plus folate; format: in vivo, human
Experimental: The elevation of plasma 2′-deoxyuridine (dUrd) is a marker of TS inhibition. (Ford et al. (2002) Clinical Cancer Research, 8(1): 103-109).
The historical group comparison study was conducted as follows:
All patients were treated with a standard dose of 500 mg 5-FU given as a bolus injection plus the respective folate [6R]-MTHF or LV, also given as bolus injections.
In Gothenburg (Sweden), for almost two decades, clinical, treatment and outcomes data on all patients with CRC have been collected at the local university hospital (Östra sjukhuset—Sahlgrenska Universitetssjukhuset). Plasma and tissue samples have been stored in a biobank under appropriate physical conditions for long term storage. The database and the biobank operate under the auspices of the relevant ethical and regulatory permissions. Patients having been treated with the standard 5-FU dose, 500 mg/m2 plus i.v. bolus LV, 60 mg/m2 were randomly drawn from the databank. For all patients, stored plasma samples were used for determination of dUrd.
Twenty-four patients with metastatic colorectal cancer (mCRC) treated with 5-FU plus 60 mg/m^2 LV were drawn at random from the database and levels of dUrd were determined at t0 and t24 from two treatment cycles for each patient and the mean values and standard deviations for the differences between t24 and t0 were calculated in the same way as for the [6R]-MTHF patients. Since LV is a “racemic” 50:50 mixture of the natural (S-formyl-tetrahydrofolate) and unnatural (R-formyl-tetrahydrofolate) isomers, the active isomer constitutes one half of the racemic LV doses given. The molecular weights for LV and [6R]-MTHF are very similar and therefore 60 mg of LV may be considered as equimolar with 30 mg of [6R]-MTHF.
All patients were enrolled in the ISO-CC-005 study and measured during two consecutive treatment cycles with 5-FU. Values for dUrd were measured immediately before injection of 5-FU (to) and after 24 hours (t24). Mean values and standard deviations for differences between t24 and to were calculated for the patients on each dose level of 30 and 60 mg/m^2 respectively.
The differences between all three groups were tested by means of the […] and thereafter the difference between the two equimolar groups LV 60 mg/m2 and 6R-MTHF 30 mg/m^2 was tested by means of the Mann-Whitney U test. P-values less than 0.05 were considered significant.
Plasma dUrd was determined by a method comprising liquid chromatography followed by tandem mass spectrometry broadly summarized as follows. Plasma samples were removed from −80° C. freezer, trichloroacetic acid was added to the plasma, and the samples mixed and centrifuged. The supernatant was filtered in a 10 kDa molecular weight cut-off membrane filter and again centrifuged for 30 min. The solution at the bottom of the tube was then ready for LC-MS/MS analysis. Calibration samples were prepared in the same way using blank plasma samples and different internal standard concentrations. The injection volume into LC-MS/MS was 40 μl. Deoxyuridine and chlorodeoxyuridine were ionized by electrospray negative mode. MS parameters were optimized for maximum response of all folates. A MS/MS acquisition method (multiple reaction monitoring) was utilized.

solid tumors = settings: cited from earlier work
[4] = test system: advanced and recurring head and neck squamous cell cancer; settings: 5-FU in combination therapies with platinum compounds; cited from earlier work
[5] = test system: stage IV colorectal cancer; assay: ISO-CC-005 Phase I/II trial: tumor response according to RECIST 1.1; format: in vivo, human; settings: for ORR (objective response rate): after 8 weeks' treatment, with 5-FU
Description: As used herein, the term ORR shall refer to the Objective Response Rate, i.e. the proportion of patients with reduction in tumor burden of a predefined amount.
Complete Response (CR): • Disappearance of all target lesions. Any pathological lymph nodes (whether target or non-target) must have reduction in short axis to <10 mm.
(Note: the appearance of one or more new lesions is also considered progression).
Stable Disease (SD): • Neither sufficient shrinkage to qualify for PR nor sufficient increase to qualify for PD, taking as reference the smallest sum diameters while on study. (Eisenhauer E A, Therasse P, Bogaerts J, Schwartz L H, Sargent D, Ford R, et al. New response evaluation criteria in solid tumors: revised RECIST guideline (version 1.1). Eur J Cancer. 2009 January; 45(2):228-47)
The safety and efficacy of [6R]-5,10-methylenetetrahydrofolate ([6R]-MTHF) is analyzed in an open-label, multiple-site, Phase I/II Dose Cohort Trial (ISO-CC-005) in combination with a fixed dose of 5-Fluorouracil (5-FU) alone or together with a fixed dose of Bevacizumab, Oxaliplatin or Irinotecan in patients with stage IV colorectal cancer. A maximum of 63 Stage IV CRC patients eligible for 1st, 2nd or 3rd line treatment are planned to be enrolled in this study disposed as follows: three to six patients in each dose cohort, and three additional patients in one dose cohort in each treatment arm according to the following study design (Table 1).
[6R]-5,10-Methylenetetrahydrofolic acid ([6R]-MTHF) is formulated as a lyophylised powder containing 100 mg per vial (calculated as free acid). Dosing: Rapid i.v. bolus injections at a fixed dose of 30, 60, 120 or 240 mg/m^2, will be administered approximately 30 minutes after administration of 5-FU on Day 1 and Day 2 in each treatment cycle in all dose cohorts of the study (i.e. regardless of treatment arm). The regimen will be repeated every second week for up to eight (8) cycles, i.e. up to sixteen (16) weeks.
5-FU (5-fluorouracil) is formulated as injection solution. Dosing: 5-FU will be administered as i.v. bolus injections on Day 1 and Day 2 in each treatment cycle. In Arm #2 and Arm #3 of the study, 5-FU will be administered approximately 60 minutes after start of Oxaliplatin or Irinotecan administration, respectively (see description below). The treatment will be repeated every second week for up to eight (8) cycles, i.e. up to sixteen (16) weeks.
ISO-CC-005 is an open clinical phase I/II tolerability and dose definition study designed to evaluate safety and define the [6R]-MTHF dose for continued development. It evaluates four doses of [6R]-MTHF in combination with 5-FU with or without the different combinations of irinotecan or oxaliplatin and bevacizumab in patients with metastatic Colorectal Cancer using 4 different protocols: • MOD+5-FU: [6R]-MTHF in combination with 5-FU only, similar to Nordic FLV protocol • MOD+FLIRI: [6R]-MTHF in combination with 5-FU and Irinotecan, similar to Nordic FLIRI protocol • MOD+FLOX: [6R]-MTHF in combination with 5-FU and Oxaliplatin, similar to Nordic FLOX protocol • MOFOX: [6R]-MTHF in combination with 5-FU and Oxaliplatin, similar to FOLFOX-6 protocol
In one of the treatment protocols (MOFOX) the total dose of [6R]-MTHF was divided into two i.v. bolus injections dispensed approximately 30 and 60 minutes after the initial administration of 5-FU bolus injection (at 0 minute), respectively.
3 patients in total had at this point been treated according to the MOFOX protocol.
By December 2017 the first-line patients were assessed again after 16 weeks of treatment (16 weeks is considered the standard schedule for cancer treatment according to clinical practice guidelines for ESMO (European Society for Medical Oncology)). Four (4) 1st line patients could not be followed for the additional 8 weeks' treatment due to study protocol formalities, and no further 1st line patients had been analysed at this point.

[6] = ISO-CC-005 Phase I/II trial: safety / adverse events; format: in vivo, human
Description: A maximum of 63 Stage IV CRC patients eligible for 1st, 2nd or 3rd line treatment are planned to be enrolled in this study disposed as follows: three to six patients in each dose cohort, and three additional patients in one dose cohort in each treatment arm according to the following study design (Table 1). ISO-CC-005 is an open clinical phase I/II tolerability and dose definition study designed to evaluate safety and define the [6R]-MTHF dose for continued development. It evaluates four doses of [6R]-MTHF in combination with 5-FU with or without the different combinations of irinotecan or oxaliplatin and bevacizumab in patients with metastatic Colorectal Cancer using 4 different protocols: • MOD+5-FU: [6R]-MTHF in combination with 5-FU only, similar to Nordic FLV protocol • MOD+[…] in combination with 5-FU and Irinotecan, similar to Nordic FLIRI protocol • MOD+FLOX: [6R]-MTHF in combination with 5-FU and Oxaliplatin, similar to Nordic FLOX protocol • MOFOX: [6R]-MTHF in combination with 5-FU and Oxaliplatin, similar to FOLFOX-6 protocol By September 2017 the gastrointestinal (GI) adverse effects (AEs) for in total 37 patients had been analyzed. Of the 37 patients, only 2 (two) patients (5.4%) reported a GI adverse event (defined as nausea, vomiting and/or dehydration) of grade 3 or greater.

[7] = of 8 first-line patients, 16 weeks
[8] = of 13 patients analyzed by August 2017, 8 weeks
[9] = of first 12 first-line patients, 8 treatment weeks

Sequence of Thymidylate Synthase (P00469 whole entry): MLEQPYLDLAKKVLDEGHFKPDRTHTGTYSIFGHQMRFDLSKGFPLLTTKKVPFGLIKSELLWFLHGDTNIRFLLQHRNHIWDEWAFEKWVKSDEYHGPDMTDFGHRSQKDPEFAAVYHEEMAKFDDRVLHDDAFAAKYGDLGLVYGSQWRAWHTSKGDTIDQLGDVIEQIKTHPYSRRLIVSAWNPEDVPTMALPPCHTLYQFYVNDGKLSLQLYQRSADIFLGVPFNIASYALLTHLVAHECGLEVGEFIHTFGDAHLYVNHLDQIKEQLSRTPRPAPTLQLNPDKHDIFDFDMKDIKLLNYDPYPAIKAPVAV

SMILES: Nc1nc2c(c(=O)[nH]1)N1CN(c3ccc(C(=O)N[C@@H](CCC(=O)O)C(=O)O)cc3)C[C@@H]1CN2 [[6S]-MTHF]
- effect on the natural [6R]-isomer as co-substrate for TS (Thymidylate Synthase): partial competitive inhibitor

SMILES: Nc1nc(=O)c2c([nH]1)NCC1CN(c3ccc(C(=O)N[C@@H](CCC(=O)[O-])C(=O)[O-])cc3)CN21.[Ca+2] (stereo partly drawn) [CoFactor, (dl)-5,10,-methylenepteroyl-monoglutamate calcium salt]
- response rate [1]: 35%
- efficacy and safety compared with leucovorin (colorectal cancer; Phase IIb study, colorectal cancer): no significant differences
- ORR (colorectal cancer): 10.7%
- clinical benefit, defined as stable disease or tumor response, patients (pancreas cancer): 40%
- patients reporting at least one AE of grade 3 or greater [2]: 7.7%

SMILES: Nc1nc2c(c(=O)[nH]1)N(C=O)C(CNc1ccc(C(=O)N[C@@H](CCC(=O)O)C(=O)O)cc1)CN2 (stereo partly drawn) [LV, 5-formyl tetrahydrofolic acid]
- ORR (colorectal cancer): 13.3%
- response rate (colorectal tumors; Leucovorin (LV) added to 5-FU): 21%
- Mean (t24-t0) plasma dUrd ([3]; LV 60 mg/m^2 BSA (racemate; active compound 30 mg/m^2), bolus with 5-FU 500 mg/m^2, 24 hours, n=48): 48.7 pmol/mL
- overall response rates (solid tumors; LV added to 5-FU): over 20%
- patients reporting at least one AE of grade 3 or greater [2]: 3.3%

SMILES: O=c1[nH]cc(F)c(=O)[nH]1 [5-FU, 5-fluorouracil]
- response rate (colorectal tumors; 5-FU given as a monotherapy): around 10%
- overall response rate (solid tumors; 5-FU alone): 10-15%
- Response rates [4]: around 30%
- survival time [4]: around 6 months

SMILES: Nc1nc2c(c(=O)[nH]1)N1CN(c3ccc(C(=O)N[C@@H](CCC(=O)O)C(=O)O)cc3)C[C@H]1CN2 [[6R]-MTHF, [6R]-5,10-methylenetetrahydrofolate]
- ORR ([5]; 8 remaining first-line patients, 16 weeks of treatment): 63%
- ORR (objective response rate) ([5]; 12 first-line patients group): 50%
- first-line patients with progressive disease (PD) ([5]; 12 first-line patients, 8 weeks): none
- ORR (objective response rate) ([5]; 13 patients (12 first-line + 1 second-line), RECIST 1.1): 54%
- progression of solid tumors between 8 and 16 weeks after initializing treatment ([5]; [6R]-MTHF and 5-FU, treatment period of at least 8 weeks): no patient displayed tumor progression; also recorded: No statistically significant progression
- clinical benefit, defined as stable disease or partial response, treated patients ([5]; [6R]-MTHF combined with 5-FU, colorectal cancer): > 90%
- ORRs achieved with initial 5-FU followed by multiple IV boluses of [6R]-MTHF ([5]; colorectal cancer patients, boluses interspaced by about 10-60 minutes): 60-80% and 60-85%
- patients with partial response (PR) ([5]; group treated with at least 60 mg/m2 [6R]-MTHF, 5 out of 7 patients, 8 weeks): 71%
- patients showing partial response [5, 7]: 5 patients
- patients showing stable disease [5, 7]: 3 patients
- patients showing partial response [5, 8]: 7 patients
- patients showing stable disease [5, 8]: 6 patients
- patients showing partial response (PR) [5, 9]: 6 patients
- patients showing stable disease [5, 9]: 6 patients
- Mean (t24-t0) plasma dUrd ([3]; [6R]-MTHF 30 mg/m^2 BSA bolus with 5-FU 500 mg/m^2, 24 hours, n=18): 74.7 pmol/mL
- level of dUrd vs equimolar LV, together with 5-FU ([3]; [6R]-MTHF 30 mg/m^2 vs LV 60 mg/m^2, p=0.03): significantly higher
- Mean (t24-t0) plasma dUrd ([3]; [6R]-MTHF 60 mg/m^2 BSA bolus with 5-FU 500 mg/m^2, 24 hours, n=16): 91.8 pmol/mL
- TS inhibition from fixed doses of 5-FU vs [6R]-MTHF dose (dUrd) ([3]; dUrd measurements incl. 120 mg vs 240 mg, ISO-CC-005): dose dependent and flattens off att very high doses
- safety profile compared to other patients in the study or historical control ([6]; 12 first-line patients): no signs of an impaired safety profile
- patients reporting a GI adverse event (nausea, vomiting and/or dehydration) of grade 3 or greater ([6]; 37 patients analyzed by September 2017 (2 patients)): 5.4%
- toxicity of 5-FU when combined with [6R]-MTHF compared to 5-FU with other folate adjuvants ([6]; ISO-CC-005 results so far): reduced
